According to ChEMBL document CHEMBL3045868, “Synthesis and antibacterial activities of para-alkoxy phenyl--ketoaldehyde derivatives” (Med Chem Res, 2013):
≈ marks a conversion by molar mass, not a printed value.

Tests used:
[1] = test system: Staphylococcus aureus; experiment: Antibacterial activity against Staphylococcus aureus clinical isolate 17 assessed as growth inhibition at pH 9 after 16 to 18 hr by NCCLS agar dilution method; type: functional
[2] = test system: Helicobacter pylori; experiment: Antibacterial activity against Helicobacter pylori 06-7 assessed as growth inhibition after 16 to 18 hr NCCLS agar dilution method; type: functional

Compound: CO/N=C/CC(=O)c1ccc(OC)cc1
- MIC [1]: 16 mg/L (≈ 77.2 µM)
- MIC [2]: 32 mg/L (≈ 154 µM)
